Source: patent publication US20020061902A1, “Treatment method” (SCHERING CORPORATION, priority 2000, published 2002)

Key:
[1] = tested on: eosinophils / human umbilical endothelial cells (HUVECs); assay: TNFα-induced adhesion of 51Cr-labeled eosinophils to HUVECs; format: cell-based; conditions: 10 μM desloratadine; TNFA; P<0.02
Description: (§1) Eosinophils were isolated and purified (>99% pure and >98% viable) from the blood of patients with allergic rhinitis or allergic asthma; a 2-week washout preceded blood collection.

[2] = stability of free base versus acid addition salt; format: physicochemical; conditions: free base vs acid addition salt
[3] = tested on: eosinophils; assay: PAF-induced eosinophil chemotaxis (blind well-chamber technique); format: cell-based, human; conditions: 10 μM desloratadine; 1 μM PAF; eosinophils from patients with allergic rhinitis or allergic asthma; P<0.02
Description: as §1

[4] = tested on: rhinitis due to pollen allergy; conditions: given over a two week period; patients with rhinitis due to pollen allergy; cited from earlier work

Row | SMILES | maximum attenuation of TNFα-induced eosinophil adhesion to HUVECs [1] | stability as the free base compared with an acid addition salt [2] | maximum attenuation of PAF-induced eosinophil chemotaxis [3] | ICAM-1 expression on nasal epithelial cells [4] | eosinophil counts [4] | rhinitis symptoms [4]
1 | Clc1ccc2c(c1)CCc1cccnc1C2=C1CCNCC1 [Desloratadine, desloratadine] | 27%±5% | more stable as the free base | 36%±8% | – | – | –
2 | O=C(O)COCCN1CCN(C(c2ccccc2)c2ccc(Cl)cc2)CC1 (stereo not drawn) [cetirizine] | – | – | – | reduced | reduced | reduced
3 | CCOC(=O)N1CCC(=C2c3ccc(Cl)cc3CCc3cccnc32)CC1 [loratadine] | – | – | – | reduced | reduced | reduced
